Assay results as given in US10220034B2, “Hepatitis B viral assembly effectors” (Indiana University Research and Technology Corp., priority 2013, dated 2019).

test system: AD38 cells; test: Activity of test compounds on viral production from AD38 cells (qPCR viral load); type: cell-based, HBV; parameters: key: (+) depicting meets criteria for significant activity; (++) depicting exceeds criteria; conditions: test concentration 3 μM, 5 days, supernatant qPCR
Procedure: AD38 cells grown in a 175 cm flash with Growth Medium (DMEM/F12 (1:1) (cat#SH30023.01, Hyclone, 1× Pen/step (cat#: 30-002-CL, Mediatech, Inc), 10% FBS (cat#: 101, Tissue Culture Biologics), 250 μg/mL G418 (cat#: 30-234-CR, Mediatech, Inc), 1 μg/mL Tetracycline (cat#: T3325, Teknova)) were detached with 0.25% trypsin. Tetracycline-free treatment medium (15 mL DMEM/F12 (1:1) (cat#SH30023.01, Hyclone, 1× Pen/step (cat#: 30-002-CL, Mediatech, Inc), with 2% FBS, Tet-system approved (cat#: 631106, Clontech) were then added to mix and spun at 1300 rpm for 5 min. Pelleted cells were then re-suspended/washed with 50 mL of 1×PBS 2 times and 10 mL treatment medium one time. AD38 cells were then re-suspended with 10 mL of treatment medium and counted. Wells of a collagen coated 96-well NUNC microtiter plate were seeded at 50,000/well in 180 μL of treatment medium, and 20 μL of either 10% DMSO (Control) or a 10× solution of test compound in 10% DMSO in treatment media was added for as final compound concentration 1, 3, or 10 μM (1.0% final [DMSO]) and plates were incubated for 5 days at 37° C.
Subsequently viral load production was assayed by quantitative PCR of the core sequence. Briefly, 5 μL of clarified supernatant was added to a PCR reaction mixture that contained forward primers HBV-f 5′-[…]-3′, Reverse primers HBV-r 5′-[…]-3′ and Fluorescent TaqMan™ Probes HBV-probe 5′-FAM/[…]/ZEN/[…]/31ABkFQ-3′ in Quanta Biosciences PerfeCTa® qPCR Toughmix®, and was subsequently on an Applied Biosystems VIIA7 in a final volume of 20 μL. The PCR mixture was incubated at 45° C. for 5 minutes, then 95° C. for 10 min, followed by 40 cycles of 10 seconds at 95° C. and 20 seconds at 60° C. Viral load was quantitated against known standards by using ViiA™ 7 Software. Viral load in the supernatant from wells with treated cells were compared against viral load in supernatant from DMSO control wells (≥3 per plate). In Table 4, concentrations of test compound causing reductions in viral load greater than at least 3 standard deviations from the DMSO controls across all plates were considered active, with (+) depicting meets criteria for significant activity, and (++) depicting exceeds criteria.

SMILES | reduction in viral load vs DMSO controls
COc1ccc(S(=O)(=O)N2CCN(c3nc(Nc4ccc(C)cc4)cc(C(C)(C)C)n3)CC2)cc1 [compound 31] | ++

same assay, conditions: test concentration 10 μM, 5 days, supernatant qPCR

SMILES | reduction in viral load vs DMSO controls
COc1ccc(S(=O)(=O)N2CCN(c3nc(C)cc(Nc4ccc(C#N)cc4)n3)CC2)cc1 [compound 42] | ++
COc1ccc(S(=O)(=O)N2CCN(c3nc(Nc4ccc(C)cc4)cc(C(C)(C)C)n3)CC2)cc1 [compound 31] | ++

test system: HBV Cp; test: Capsid assembly assay (fluorescence quenching); conditions: 10 μM compound, control reactions with no drug show 25±5% assembly

SMILES | % Capsid formation at 24 h (10 μM) [%]
COc1ccc(Nc2cc(C)nc(N3CCN(S(=O)(=O)c4ccc(OC)cc4)CC3)n2)cc1 [compound 43] | 97
CCCCc1ccc(S(=O)(=O)N2CCN(c3nc(C)cc(Nc4ccc(C)cc4)n3)CC2)cc1 [compound 20] | 90
COc1ccc(S(=O)(=O)N2CCN(c3nc(C)cc(Nc4ccc(F)cc4)n3)CC2)cc1 [compound 38] | 75
Cc1ccc(Nc2cc(C)nc(N3CCN(S(=O)(=O)c4ccc(O)cc4)CC3)n2)cc1 [compound 4] | 99
COc1ccc(S(=O)(=O)N2CCN(c3nc(Nc4ccc(C)cc4)cc(C(C)C)n3)CC2)cc1 [compound 30] | 87
Cc1ccc(Nc2cc(C)nc(N3CCN(S(=O)(=O)c4ccccc4F)CC3)n2)cc1 [compound 14] | 67
COc1ccc(Nc2cc(C)nc(N3CCN(S(=O)(=O)c4ccc(OC)cc4)CC3)n2)cc1 [compound 41] | 84
COc1ccc(S(=O)(=O)N2CCN(c3nc(C)cc(Nc4ccc(C#N)cc4)n3)CC2)cc1 [compound 42] | 69
COc1cccc(S(=O)(=O)N2CCN(c3nc(C)cc(Nc4ccc(F)cc4)n3)CC2)c1 [compound 44] | 92
CC(C)c1cc(Nc2ccc(F)cc2)nc(N2CCN(S(=O)(=O)c3ccccc3)CC2)n1 [compound 21] | 71
Cc1ccc(Nc2cc(C)nc(N3CCN(S(=O)(=O)c4ccc5cc(N(C)C)ccc5c4)CC3)n2)cc1 [compound 19] | 83
COc1ccc(Nc2cc(C)nc(N3CCN(S(=O)(=O)c4ccc(OC)c(OC)c4)CC3)n2)cc1 [compound 45] | 87
COc1ccc(S(=O)(=O)N2CCN(c3nc(C)cc(Nc4ccc(OC(F)(F)F)cc4)n3)CC2)cc1 [compound 36] | 78
COc1ccc(S(=O)(=O)N2CCN(c3nc(C)cc(Nc4ccccc4)n3)CC2)cc1 [compound 39] | 56
Cc1ccc(Nc2cc(C)nc(N3CCN(S(=O)(=O)c4ccc(OC(F)(F)F)cc4)CC3)n2)cc1 [compound 2] | 83
Cc1ccc(S(=O)(=O)N2CCN(c3nc(Nc4ccc(F)cc4)cc(C(C)C)n3)CC2)cc1 [compound 22] | 80
Cc1ccc(Nc2cc(C)nc(N3CCN(S(=O)(=O)c4ccc5ccccc5c4)CC3)n2)cc1 [compound 17] | 70
Cc1ccc(Nc2cc(C)nc(N3CCN(S(=O)(=O)c4ccccc4)CC3)n2)cc1 [compound 12] | 73
Cc1ccc(Nc2cc(C)nc(N3CCN(S(=O)(=O)c4ccc(F)cc4)CC3)n2)cc1 [compound 13] | 60
COc1ccc(S(=O)(=O)N2CCN(c3nc(Nc4ccc(C)cc4)cc(C(C)(C)C)n3)CC2)cc1 [compound 31] | 87
CCCCOc1ccc(S(=O)(=O)N2CCN(c3nc(C)cc(Nc4ccc(C)cc4)n3)CC2)cc1 [compound 9] | 93
